Key:
[1] = test system: AMBEL (Ambrosia artemisifolia); assay: Postemergence herbicidal evaluation; assay type: in vivo, L.; settings: for AMBEL herbicidal rating: postemergence
Summary of the method: (§1)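 Seedlings grown for about two weeks were sprayed postemergence and then kept under standard greenhouse care. Injury was rated visually 4–5 weeks after treatment on a 0–9 scale against untreated controls, and ratings from repeat tests were averaged.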

[2] = test system: CASOB (Cassia obtusifolia); assay: Postemergence herbicidal evaluation; assay type: in vivo, L.; settings: for CASOB herbicidal rating: postemergence
Summary of the method: as §1

[3] = test system: CHEAL (Chenopodium album); assay: Postemergence herbicidal evaluation; assay type: in vivo, L.; settings: for CHEAL herbicidal rating: postemergence
Summary of the method: as §1

[4] = test system: ECHCG (Echinochloa crus-galli); assay: Postemergence herbicidal evaluation; assay type: in vivo, (L.) Beau; settings: for ECHCG herbicidal rating: postemergence
Summary of the method: as §1

[5] = test system: ORYSAT (Rice, Tebonnet); assay: Postemergence herbicidal evaluation; assay type: in vivo, Oryza sativa, (L.) Tebonnet; settings: for ORYSAT herbicidal rating: postemergence
Summary of the method: as §1

[6] = test system: ZEAMX (Corn, Field); assay: Postemergence herbicidal evaluation; assay type: in vivo, Zea mays, L.; settings: for ZEAMX herbicidal rating: postemergence
Summary of the method: as §1

[7] = test system: IPOHE (Ipomoea hederacea); assay: Preemergence herbicidal evaluation; assay type: in vivo, (L.) Jacq.; settings: rated 4-5 weeks after treatment
[8] = test system: GLXMAW (Soybean, Williams); assay: Preemergence herbicidal evaluation; assay type: in vivo, Glycine max, (L.) Merr. cv Williams; settings: rated 4-5 weeks after treatment
[9] = test system: GLXMA (Soybean); assay: Preemergence herbicidal evaluation; assay type: in vivo, Glycine max, (L.) Merr.; settings: rated 4-5 weeks after treatment
[10] = test system: ORYSAT (Rice, Tebonnet); assay: Preemergence herbicidal evaluation; assay type: in vivo, Oryza sativa, (L.) Tebonnet; settings: rated 4-5 weeks after treatment
[11] = test system: TRZAWR (Wheat, Winter, cv Riband); assay: Preemergence herbicidal evaluation; assay type: in vivo, Triticum aestivum; settings: rated 4-5 weeks after treatment
Summary of the method: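 Test compound is applied in aqueous acetone to cups just after seeding. Cups are watered and maintained on greenhouse benches. Each cup is scored 0–9 by eye relative to a control after four to five weeks.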

[12] = test system: ECHORC (Echinochloa oryzoides); assay: Flooded paddy, preemergence weed control; assay type: in vivo, Echinochloa oryzoides (Ard.) Fritsch.; settings: rated 3-4 weeks after treatment, 0-9 rating scale
Summary of the method: (§2)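 Preemergence, flooded: propagules planted at 0.5 cm depth in silt loam, water level maintained at 1.5 to 3 cm over soil, containers kept on greenhouse benches. Activity scored 0-9 by eye relative to a control plant.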

[13] = test system: CYPIR (Cyperus iria); assay: Flooded paddy, preemergence weed control; assay type: in vivo; settings: rated 3-4 weeks after treatment, 0-9 rating scale
Summary of the method: as §2

[14] = test system: SAGPY (Sagittaria pygmaea); assay: Flooded paddy, preemergence weed control; assay type: in vivo, L.; settings: rated 3-4 weeks after treatment, 0-9 rating scale
Summary of the method: as §2

[15] = preemergence, rate 0.0620 kg/ha
[16] = preemergence, rate 0.1250 kg/ha
[17] = preemergence, rate 0.2500 kg/ha

Cn1c(C(F)(F)F)cc(=O)n(-c2ccc3snc(C4OCCO4)c3c2)c1=O [Compound 45, 3-[3-(1,3-dioxolan-2-yl)-1,2-benzisothiazol-5-yl]-1-methyl-6-(trifluoromethyl)uracil]
Postemergence herbicidal rating, AMBEL ([1]; rate 0.0320 kg/ha): 9.0
Postemergence herbicidal rating, AMBEL ([1]; rate 0.0620 kg/ha): 9.0
Postemergence herbicidal rating, CASOB ([2]; rate 0.0320 kg/ha): 5.0
Postemergence herbicidal rating, CASOB ([2]; rate 0.0620 kg/ha): 9.0
Postemergence herbicidal rating, CHEAL ([3]; rate 0.0320 kg/ha): 8.5
Postemergence herbicidal rating, CHEAL ([3]; rate 0.0620 kg/ha): 9.0
Postemergence herbicidal rating, ECHCG ([4]; rate 0.0320 kg/ha): 2.8
Postemergence herbicidal rating, ECHCG ([4]; rate 0.0620 kg/ha): 4.0
Postemergence herbicidal rating, ORYSAT ([5]; rate 0.0320 kg/ha): 4.3
Postemergence herbicidal rating, ORYSAT ([5]; rate 0.0620 kg/ha): 5.2
Postemergence herbicidal rating, ZEAMX ([6]; rate 0.0320 kg/ha): 5.5
Postemergence herbicidal rating, ZEAMX ([6]; rate 0.0620 kg/ha): 6.0
Preemergence herbicidal rating IPOHE ([7]; Rate 0.0620 kg/ha): 9.0
Preemergence herbicidal rating IPOHE ([7]; Rate 0.1250 kg/ha): 9.0
Preemergence herbicidal rating IPOHE ([7]; Rate 0.2500 kg/ha): 9.0
Preemergence herbicidal rating GLXMAW ([8]; Rate 0.0620 kg/ha): 9.0
Preemergence herbicidal rating GLXMAW ([8]; Rate 0.1250 kg/ha): 9.0
Preemergence herbicidal rating GLXMAW ([8]; Rate 0.2500 kg/ha): 9.0
Preemergence herbicidal rating GLXMA ([9]; Rate 0.0620 kg/ha): 9.0
Preemergence herbicidal rating GLXMA ([9]; Rate 0.1250 kg/ha): 9.0
Preemergence herbicidal rating GLXMA ([9]; Rate 0.2500 kg/ha): 9.0
Preemergence herbicidal rating ORYSAT ([10]; Rate 0.0620 kg/ha): 8.7
Preemergence herbicidal rating ORYSAT ([10]; Rate 0.1250 kg/ha): 9.0
Preemergence herbicidal rating ORYSAT ([10]; Rate 0.2500 kg/ha): 9.0
Preemergence herbicidal rating TRZAWR ([11]; Rate 0.0620 kg/ha): 9.0
Preemergence herbicidal rating TRZAWR ([11]; Rate 0.1250 kg/ha): 9.0
Preemergence herbicidal rating TRZAWR ([11]; Rate 0.2500 kg/ha): 9.0
herbicidal rating, ECHORC ([12]; rate 0.0080 kg/ha): 3.5
herbicidal rating, ECHORC ([12]; rate 0.0320 kg/ha): 7.3
herbicidal rating, ECHORC ([12]; rate 0.1250 kg/ha): 9.0
herbicidal rating, CYPIR ([13]; rate 0.0080 kg/ha): 9.0
herbicidal rating, CYPIR ([13]; rate 0.0320 kg/ha): 9.0
herbicidal rating, CYPIR ([13]; rate 0.1250 kg/ha): 9.0
herbicidal rating, SAGPY ([14]; rate 0.0080 kg/ha): 7.0
herbicidal rating, SAGPY ([14]; rate 0.0320 kg/ha): 8.0
herbicidal rating, SAGPY ([14]; rate 0.1250 kg/ha): 9.0

CSCC1COC(c2nsc3ccc(-n4c(=O)cc(C(F)(F)F)n(C)c4=O)cc23)O1 (centres unmarked) [Compound 84, 1-methyl-3-[3-[4-[(methylthio)methyl]-1,3-dioxolan-2-yl]-1,2-benzisothiazol-5-yl]-6-(trifluoromethyl)uracil]
AMBEL herbicidal rating ([1]; rate 0.0320 kg/ha): 7.5
AMBEL herbicidal rating ([1]; rate 0.0620 kg/ha): 9.0
AMBEL herbicidal rating ([1]; rate 0.1250 kg/ha): 9.0
CASOB herbicidal rating ([2]; rate 0.0320 kg/ha): 7.0
CASOB herbicidal rating ([2]; rate 0.0620 kg/ha): 7.0
CASOB herbicidal rating ([2]; rate 0.1250 kg/ha): 9.0
CHEAL herbicidal rating ([3]; rate 0.0320 kg/ha): 9.0
CHEAL herbicidal rating ([3]; rate 0.0620 kg/ha): 9.0
CHEAL herbicidal rating ([3]; rate 0.1250 kg/ha): 9.0
ECHCG herbicidal rating ([4]; rate 0.0320 kg/ha): 4.5
ECHCG herbicidal rating ([4]; rate 0.0620 kg/ha): 6.5
ECHCG herbicidal rating ([4]; rate 0.1250 kg/ha): 9.0
ORYSAT herbicidal rating ([5]; rate 0.0320 kg/ha): 5.3
ORYSAT herbicidal rating ([5]; rate 0.0620 kg/ha): 6.5
ORYSAT herbicidal rating ([5]; rate 0.1250 kg/ha): 9.0
ZEAMX herbicidal rating ([6]; rate 0.0320 kg/ha): 4.8
ZEAMX herbicidal rating ([6]; rate 0.0620 kg/ha): 6.0
ZEAMX herbicidal rating ([6]; rate 0.1250 kg/ha): 8.5
Preemergence herbicidal rating IPOHE [7, 15]: 6.3
Preemergence herbicidal rating IPOHE [7, 16]: 8.3
Preemergence herbicidal rating IPOHE [7, 17]: 9.0
Preemergence herbicidal rating GLXMAW [8, 15]: 7.0
Preemergence herbicidal rating GLXMAW [8, 16]: 9.0
Preemergence herbicidal rating GLXMAW [8, 17]: 9.0
Preemergence herbicidal rating GLXMA [9, 15]: 9.0
Preemergence herbicidal rating GLXMA [9, 16]: 9.0
Preemergence herbicidal rating GLXMA [9, 17]: 9.0
Preemergence herbicidal rating ORYSAT [10, 15]: 2.5
Preemergence herbicidal rating ORYSAT [10, 16]: 3.5
Preemergence herbicidal rating ORYSAT [10, 17]: 6.0
Preemergence herbicidal rating TRZAWR [11, 15]: 2.0
Preemergence herbicidal rating TRZAWR [11, 16]: 5.0
herbicidal rating, ECHORC ([12]; rate 0.0080 kg/ha): 0.0
herbicidal rating, ECHORC ([12]; rate 0.0320 kg/ha): 7.5
herbicidal rating, ECHORC ([12]; rate 0.1250 kg/ha): 8.0
herbicidal rating, CYPIR ([13]; rate 0.0080 kg/ha): 0.0
herbicidal rating, CYPIR ([13]; rate 0.0320 kg/ha): 1.5
herbicidal rating, CYPIR ([13]; rate 0.1250 kg/ha): 6.0
herbicidal rating, SAGPY ([14]; rate 0.0080 kg/ha): 0.0
herbicidal rating, SAGPY ([14]; rate 0.0320 kg/ha): 0.0
herbicidal rating, SAGPY ([14]; rate 0.1250 kg/ha): 4.0

Cn1c(C(F)(F)F)cc(=O)n(-c2ccc3snc(C4OCC(C[S+](C)[O-])O4)c3c2)c1=O (centres unmarked) [Compound 88, 1-methyl-3-[3-[4-[(methylsulfinyl)methyl]-1,3-dioxolan-2-yl]-1,2-benzisothiazol-5-yl]-6-(trifluoromethyl)uracil]
AMBEL herbicidal rating ([1]; rate 0.0320 kg/ha): 9.0
AMBEL herbicidal rating ([1]; rate 0.0620 kg/ha): 9.0
CASOB herbicidal rating ([2]; rate 0.0320 kg/ha): 5.0
CASOB herbicidal rating ([2]; rate 0.0620 kg/ha): 9.0
CHEAL herbicidal rating ([3]; rate 0.0320 kg/ha): 9.0
CHEAL herbicidal rating ([3]; rate 0.0620 kg/ha): 9.0
ECHCG herbicidal rating ([4]; rate 0.0320 kg/ha): 5.0
ECHCG herbicidal rating ([4]; rate 0.0620 kg/ha): 5.0
ORYSAT herbicidal rating ([5]; rate 0.0320 kg/ha): 4.0
ORYSAT herbicidal rating ([5]; rate 0.0620 kg/ha): 4.0
ZEAMX herbicidal rating ([6]; rate 0.0320 kg/ha): 4.0
ZEAMX herbicidal rating ([6]; rate 0.0620 kg/ha): 5.0
Preemergence herbicidal rating IPOHE [7, 15]: 6.0
Preemergence herbicidal rating IPOHE [7, 16]: 7.5
Preemergence herbicidal rating IPOHE [7, 17]: 9.0
Preemergence herbicidal rating GLXMAW [8, 15]: 9.0
Preemergence herbicidal rating GLXMAW [8, 16]: 9.0
Preemergence herbicidal rating GLXMAW [8, 17]: 9.0
Preemergence herbicidal rating GLXMA [9, 15]: 9.0
Preemergence herbicidal rating GLXMA [9, 16]: 9.0
Preemergence herbicidal rating GLXMA [9, 17]: 9.0
Preemergence herbicidal rating ORYSAT [10, 15]: 4.0
Preemergence herbicidal rating ORYSAT [10, 16]: 5.0
Preemergence herbicidal rating ORYSAT [10, 17]: 8.0
ECHORC herbicidal rating ([12]; rate 0.0320 kg/ha): 0.0
ECHORC herbicidal rating ([12]; rate 0.1250 kg/ha): 0.0
CYPIR herbicidal rating ([13]; rate 0.0320 kg/ha): 0.0
CYPIR herbicidal rating ([13]; rate 0.1250 kg/ha): 9.0
SAGPY herbicidal rating ([14]; rate 0.0320 kg/ha): 0.0
SAGPY herbicidal rating ([14]; rate 0.1250 kg/ha): 0.0

Reference: patent US6706663B2, “Herbicidal 3-heterocyclic substituted benzisothiazole and benzisoxazole compounds” (Wyeth, priority 2000, dated 2004)
